Experiments:
MT4 [1] = experiment: Anti-HIV activity to reduce HIV-2-induced cytopathic effect by 50% in MT-4 cells against HIV-2 ROD; assay type: functional, cell-based; details: Homo sapiens
MT4 [2] = experiment: Anti-HIV activity to reduce […] cytopathic effect by 50% in MT-4 cells against HIV-1 IIIB; assay type: functional, cell-based; details: Homo sapiens
MT4 [3] = experiment: Cytotoxicity to reduce MT-4 cell viability by 50%; assay type: functional; details: Homo sapiens
MT4 [4] = experiment: Anti-HIV activity to reduce […] cytopathic effect by 50% in MT-4 cells against HIV-1 IIIB; NA=not active; assay type: functional, cell-based, Homo sapiens
MT4 [5] = experiment: Anti-HIV activity to reduce […] cytopathic effect by 50% in MT-4 cells against HIV-1 IIIB; NA= not active; assay type: functional, cell-based, Homo sapiens
MT4 [6] = experiment: Evaluated for the inhibition of replication of HIV-1 IIIB or HIV-2 (ROD) in MT-4 cells by using [3H]-dGTP as the radiolabeled substrate; assay type: functional, cell-based; details: Homo sapiens
MT4 [7] = experiment: Evaluated for the inhibition of replication of HIV-1 IIIB or HIV-2 (ROD) in MT-4 cells by using [3H]dGTP radiolabeled substrate; assay type: functional, cell-based; details: Homo sapiens
MT4 [8] = experiment: Evaluated for cytotoxicity and the concentration required to reduce MT-4 cell viability by 50% was reported; assay type: functional; details: Homo sapiens
MT4 [9] = experiment: Concentration required to reduce HIV-1-induced cytopathic effect by 50% in MT-4 cells against HIV-2 ROD; assay type: functional, cell-based; details: Homo sapiens
MT4 [10] = experiment: Concentration required to reduce HIV-1-induced cytopathic effect by 50% in MT-4 cells against HIV-1 IIIB; assay type: functional, cell-based; details: Homo sapiens
MT4 [11] = experiment: Compound was evaluated for the inhibition of replication of HIV-1 IIIB or HIV-2 (ROD) in MT-4 cells by using [3H]dGTP radiolabeled substrate; assay type: functional, cell-based; details: Homo sapiens
[12] = Selectivity index ([…] ratio)of the compound; assay type: functional

Compound	EC50 (MT4 [1]) [µM]	EC50 (MT4 [2]) [nM]	CC50 (MT4 [3]) [µM]	also measured
O=C1CSC(c2c(Cl)cccc2Cl)N1c1ccccn1 (stereo not drawn)	> 38.5	178	38.5	–
Clc1cccc(Cl)c1C1SCc2nc3ccccc3n21 (stereo not drawn)	–	589	9.43	–
Cc1cccnc1N1C(=O)CSC1c1c(Cl)cccc1Cl (stereo not drawn)	> 31.5	–	42.6	EC50 (MT4 [4]): Not Active
O=C1CSC(c2c(Cl)cccc2Cl)N1c1cccnc1 (stereo not drawn)	–	> 23000	23.4	EC50 (MT4 [5]): Not Active
Fc1cccc(F)c1C1SCc2nc3ccccc3n21 (stereo not drawn) [THIAZOLOBENZIMIDAZOLE]	–	352	19.2	IC50 (MT4 [6]): 14.6 µM
Cc1ccnc(N2C(=O)CSC2c2c(Cl)cccc2Cl)c1 (stereo not drawn)	> 368	147	> 368	–
Cc1cccc(N2C(=O)CSC2c2c(Cl)cccc2Cl)n1 (stereo not drawn)	285	44	285	IC50 (MT4 [7]): 2240 nM
Cc1ccc(N2C(=O)CSC2c2c(F)cccc2F)nc1 (stereo not drawn)	> 171	5130	202	–
O=C1CSC(c2c(F)cccc2F)N1c1ccccc1 (stereo not drawn)	–	–	–	CC50 (MT4 [8]): > 429 µM; EC50 (MT4 [9]): > 429 µM; EC50 (MT4 [10]): 2300 nM
O=C1CSC(c2c(F)cccc2F)N1c1ccccn1 (stereo not drawn)	> 427	855	> 427	–
O=C1CSC(c2c(Cl)cccc2Cl)N1c1ccccc1 (stereo not drawn)	> 39	401	38.1	–
Cc1cccnc1N1C(=O)CSC1c1c(F)cccc1F (stereo not drawn)	> 270	53500	> 319	–
O=C1CSC(c2c(F)cccc2F)N1c1cccnc1 (stereo not drawn)	> 427	95100	> 427	–
Cc1cccc(N2C(=O)CSC2c2c(F)cccc2F)n1 (stereo not drawn)	> 126	82	126	IC50 (MT4 [11]): 2900 nM
Cc1ccnc(N2C(=O)CSC2c2c(F)cccc2F)c1 (stereo not drawn)	> 242	248	242	Ratio [12]: 976; IC50 (MT4 [7]): 2840 nM
